Measured values as given in patent publication US20030144194A1, “Cancer treatment and prognosis” (priority 2000, published 2003).
Blank lines part the entries; values can stand above or below the compound they belong to.

Assays:
[1] = test system: HES-1; test: Western blot of HES-1 protein in nuclear extracts of breast cancer cell lines; format: cell-based; conditions: for effect on 17β-estradiol-mediated down regulation of HES-1 protein: antiestrogen together with 17β-estradiol, FIG. 1C
Description: FIG. 1(B) Regulation of HES-1 by 17β-estradiol in breast cancer cell lines; 50 μg of nuclear extract protein was used;
(§1) T47D cells were cultured in a 1:1 mixture of Hams F 12 and DME with 10% fetal bovine serum, MCF-7, MDA-MB-231 and COS-7 cells were cultured in DME with 10% fetal bovine serum. Before experiments with estrogen, the media were switched and phenol red free and DCC charcoal treated with serum were used. Culture conditions were set at 37° C., 5% CO2 and 100% humidity. For creation of tetracycline inducible stably transfected clones the tet-regulated expression system from Bibco BRL was used. A puromycin resistance gene was cloned into pTet TAk. T47D cells were then transfected with lipofectin (GibcoBRL) according to the manufacturer's instructions. Transfectants were selected with puromycin at 1 μg/ml. […] Transfectants were selected using G418 (Calbiochem) at 500 μg/ml. Cells lines stably transfected with tetracycline regulated expression constructs were grown in the presence of 1 μg/ml of tetracycline. At the time of induction the medium was removed and the cells were washed with PBS two times before adding new medium without tetracycline.
Nuclear extract and RNA preparation was carried out according to the protocol by Schreiber et al (E. Schreiber, et al., Nucleic Acids Res 17, 6419 (1989)) except that PBS was used instead of TBS and the following inhibitors were added: leupeptin at 1 μg/ml, PMSF at 0.2 mM, […] Na3VO4, 1 mM NaPPi, 1 mM NaF, 100 μM Na2MO4 (all from Sigma). Nuclear extracts were prepared from cells grown to a confluency of 60%-70% on a 150 mm culture dish. Protein content was determined by Bradford assay (BioRad).
(§2) Two peptides with identical sequence parts of HES-1 protein were synthesised and simultaneously injected into one rabbit (Genosys). The peptides were […] […] and […]. For Western blots, 100 μg of nuclear extract was separated on a 12% SDS-PAGE. Western blot analysis was performed according to standard protocols (Harlow and Lane, E. Harlow, and D. Lane, Cold Spring Harbour Laboratory Press, Cold Spring Harbour, N.Y., (1988)). HES-1 antibody was used at a dilution of 1:1000. The PCNA (C-10) antibody was from Santa Cruz and used at 1:1000. Donkey, anti-rabbit and sheep anti-mouse IgG HRP conjugated antibody (Amersham) were used at 1:10000. Antibody binding was visualised using ECL, Super Signal (Pierce).

[2] = test system: histone acetylation; conditions: MCF-7 breast cancer cells, Pasqualini et al (1989); cited from earlier work
[3] = test system: T47D breast cancer cells; test: Proliferation assay, T47D cells stably transfected with tetracycline regulated FLAG HES-1 expression; format: cell-based
Description: (§3) FIG. 2 illustrates a proliferation assay T47D cells stably transfected with tetracycline regulated FLAG HES-1 expression. (A) Relative proliferation of two different clones HES-1(1) and HES-1(2) with inducible FLAG HES-1 expression, and two control clones. Tetracycline at 1 μg/ml and 17β-estradiol at 10 nM were used when stated. Data represents an average of six independent measurements. (B) Western blot of endogenous HES-1 and FLAG HES-1 expression in HES-1(1) and HES-1(2) cell lines with antibody against HES-1. PCNA Western blot on same extracts 50 μg of nuclear protein was used;
as §1
A proliferation determination kit from BioThema (A. Lundin, Methods Enzymol 305, 346-370 (1999)). The kit is based on measuring ATP and since the ATP level is constant between cells this can be used to evaluate the number of cells. The cells were grown on 24 well plates at 1000 cells/well. Treatment with hormone was in phenol red-free medium supplemented with 10% DCC treated fetal calf serum. […] Luciferase activity was measured using a Berthold luminometer.

[4] = test system: proliferating cell nuclear antigen (PCNA); test: PCNA Western blot on nuclear extracts of tet-regulated FLAG HES-1 T47D cells; format: cell-based
Description: as §3, §2

[5] = test system: HES-1; test: All-trans retinoic acid effect on 17β-estradiol-dependent down regulation of HES-1 expression in MCF-7 cells (Western blot); format: cell-based; conditions: 1 μM all-trans retinoic acid, 17β estradiol 0.1 and 1 nM, 3 days
Description: MCF-7 cells were grown on 150 mm plates to 70% confluency in DME medium supplemented with 10% FBS. The medium was then changed to phenolAred free DME supplemented with DCC treated FBS to which 17β estradiol 0.1 and 1 nM respectively and 1 μM of all-trans retinoic acid was added individually or in combination. The plates were then incubated for 3 days in a humidified incubator at 37° C. and 5% CO2. Nuclear extract was produced according to Schreiber et al (E. Schreiber et al (1989) Nucleic Acids Res 17: 6419). 50 μg of this nuclear extract was then run on SDS-PAGE and blotted over to nitrocellulose membrane Hybond C super (Amersham). HES-1 protein was then detected using HES-1 antibody.

[6] = test system: CMV promoter; conditions: L. D. Dion et al., Virology 231 (1997); cited from earlier work
[7] = target: T1, estrogen receptor α (ERα) (Homo sapiens, UniProt P03372); test: ERE TATA LUC reporter in COS-7 cells transfected with ERα; format: cell-based
T1 construct: FLAG; expressed in transfected cells; host or cells: COS-7
T1 sequence (P03372 1-595): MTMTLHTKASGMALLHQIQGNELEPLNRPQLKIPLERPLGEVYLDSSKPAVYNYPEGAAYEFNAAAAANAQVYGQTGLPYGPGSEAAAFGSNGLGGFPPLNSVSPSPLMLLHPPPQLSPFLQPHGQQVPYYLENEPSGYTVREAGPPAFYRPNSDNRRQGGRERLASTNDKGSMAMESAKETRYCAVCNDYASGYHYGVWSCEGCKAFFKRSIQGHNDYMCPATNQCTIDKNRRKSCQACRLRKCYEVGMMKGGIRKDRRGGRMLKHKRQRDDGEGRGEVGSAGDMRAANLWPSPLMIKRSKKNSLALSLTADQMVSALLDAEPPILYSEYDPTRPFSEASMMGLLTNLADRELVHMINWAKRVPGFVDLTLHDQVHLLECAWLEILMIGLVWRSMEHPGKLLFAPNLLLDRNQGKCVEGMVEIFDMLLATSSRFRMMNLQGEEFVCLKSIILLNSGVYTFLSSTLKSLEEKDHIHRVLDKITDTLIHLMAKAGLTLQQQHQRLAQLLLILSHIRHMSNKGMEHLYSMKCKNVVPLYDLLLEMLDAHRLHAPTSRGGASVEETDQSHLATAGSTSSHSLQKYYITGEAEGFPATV
Description: FIG. 5. Transfection of COS-7 cells with 3X ERE TATA LUC 1 μg and 100 ng of pcDNA3 FLAG ERα.
FIG. 8. Transient transfection of COS-7 cells using the ERE reporter vector ERE TATA LUC and expression vectors FLAG ERα and FLAG HES-1 and treated with E2 and the histone deacetylase inhibitor Trichostatin A (TSA).
Human ERα was epitope tagged with the artificial “FLAG” epitope using PCR cloning. The VP16 activation domain was fused to the N-tenninus of rat HES-1.

[8] = target: T2, ERβ (Homo sapiens, UniProt Q92731); test: ERE TATA LUC reporter in COS-7 cells transfected with ERβ; format: cell-based; conditions: FIG. 9
T2 construct: FLAG; expressed in transfected cells; host or cells: COS-7
T2 sequence (Q92731 whole entry, species assumed): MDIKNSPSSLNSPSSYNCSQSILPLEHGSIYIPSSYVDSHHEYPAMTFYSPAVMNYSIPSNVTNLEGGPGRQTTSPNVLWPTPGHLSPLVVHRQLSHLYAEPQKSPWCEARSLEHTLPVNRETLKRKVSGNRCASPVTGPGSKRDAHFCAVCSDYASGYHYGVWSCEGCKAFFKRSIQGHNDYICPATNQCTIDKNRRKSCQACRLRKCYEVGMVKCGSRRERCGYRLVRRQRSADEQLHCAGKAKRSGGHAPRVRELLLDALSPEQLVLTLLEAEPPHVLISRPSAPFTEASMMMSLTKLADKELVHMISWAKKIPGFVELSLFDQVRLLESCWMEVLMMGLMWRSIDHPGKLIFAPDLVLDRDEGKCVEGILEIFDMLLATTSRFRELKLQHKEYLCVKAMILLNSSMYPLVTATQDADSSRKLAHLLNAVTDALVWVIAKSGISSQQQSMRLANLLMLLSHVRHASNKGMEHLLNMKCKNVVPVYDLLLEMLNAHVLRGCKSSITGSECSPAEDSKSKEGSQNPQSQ
Text: FIG. 9. Transient transfection of COS-7 cells using the ERE reporter vector ERE TATA LUC and expression vectors FLAG […] and FLAG HES-1 and treated with E2 and the histone deacetylase inhibitor Tricostatin A (TSA).

SMILES: CC/C(=C(\c1ccc(O)cc1)c1ccc(OCCN(C)C)cc1)c1ccccc1 [4OH tamoxifen]
- effect on 17β-estradiol-mediated down regulation of HES-1 protein [1]: prevented

SMILES: C[C@]12CC[C@@H]3c4ccc(O)cc4CC[C@H]3[C@@H]1CC[C@@H]2O [17β-estradiol]
- expressed protein levels of HES-1 ([1]; MCF-7 breast cancer cells): suppress
- 17β-estradiol-mediated suppression of HES-1 ([1]; MDA-MB-231 breast cancer cells (lack ERα)): lack of 17β-estradiol-mediated suppression
- expressed protein levels of HES-1 ([1]; T47D breast cancer cells): suppress
- histone acetylation [2]: decreases
- stimulation of proliferation ([3]; absence of tetracycline (with induced HES-1 expression), 17β-estradiol 10 nM): no 17β-estradiol stimulated proliferation
- stimulation of proliferation ([3]; presence of tetracycline (without induced HES-1 expression), 17β-estradiol 10 nM): two-fold stimulation
- stimulation of proliferation ([3]; two control cell lines with tetracycline-regulated vector lacking FLAG-HES-1): exhibited 17β-estradiol-stimulated proliferation
- regulation of proliferation marker PCNA ([4]; absence of exogenous FLAG-HES-1 expression): upregulated twofold
- regulation of proliferation marker PCNA ([4]; presence of exogenous FLAG-HES-1): no regulation

SMILES: C[C@]12CC[C@@H]3c4ccc(O)cc4C[C@@H](CCCCCCCCC[S+]([O-])CCCC(F)(F)C(F)(F)F)[C@H]3[C@@H]1CC[C@@H]2O (stereo partly drawn) [ICI 182,780]
- effect on 17β-estradiol-mediated down regulation of HES-1 protein [1]: prevented

SMILES: CC1=C(/C=C/C(C)=C/C=C/C(C)=C/C(=O)O)C(C)(C)CCC1 [all-trans retinoic acid]
- effect on 17β-estradiol-dependent down regulation of HES-1 expression [5]: inhibits

SMILES: CCCC(=O)O.COc1cccc(C#CCON=C2CN3CCC2C3)c1 (stereo not drawn) [n-butyrate]
- CMV promoter activity [6]: induce

SMILES: O=C(c1ccc(OCN2CCCCC2)cc1)c1c(-c2ccc(O)cc2)sc2cc(O)ccc12 [raloxifen]
- effect on 17β-estradiol-mediated down regulation of HES-1 protein [1]: prevented

- makes 4OH tamoxifen into an effective agonist on ERE TATA LUC ([7]; COS-7 cells treated with 5 ng/ml trichostatin A for 8 hrs): same result
- 17β-estradiol response on addition of TSA together with HES-1 ([7]; COS-7 cells, ERα, FIG. 8): much larger response
- 17β-estradiol response on addition of TSA in combination with HES-1 [8]: no significant difference
SMILES: CC(/C=C/C(=O)NO)=C\[C@@H](C)C(=O)c1ccc(N(C)C)cc1 [trichostatin A]
- CMV promoter activity [6]: induce
